Source: US3950418A, “Vitamin A acid amides” (Hoffmann-La Roche Inc., priority 1970, dated 1976)

How the values were obtained:
Type in all cases: in vivo
[1] = Acute toxicity, testing in the rat; details: in vivo, in rape oil, per os and intraperitoneal administration
Text: (§1) Toxicity tests carried out in mice and rats gave the following results for acute toxicity:
(§2) Vitamin A acid ethyl amide in rape oil (per os and intraperitoneal administration)

rat = assay: Acute toxicity, testing in the rat; details: in rape oil, per os and intraperitoneal administration
Text: as §1, §2

mouse = assay: Acute toxicity, testing in the mouse; details: in rape oil
Text: as §1
(§3) 1. Vitamin A acid ethyl amide in rape oil (per os and intraperitoneal administration)
(§4) 2. Vitamin A acid ethanol amide in rape oil (intraperitoneal administration)
(§5) 3. Vitamin A acid diethyl amide, vitamin A acid n-butyl amide, vitamin A acid phenyl amide, vitamin A acid isopropyl amide, or vitamin A acid methyl amide in rape oil (intraperitoneal administration)

[2] = Acute toxicity, testing in the mouse; details: in vivo, in rape oil; for LD50 at 240 h: 10 days
Text: as §1, §3, §4, §5

[3] = per os and intraperitoneal administration, 24 hrs.
[4] = per os and intraperitoneal administration, 10 days
[5] = per os and intraperitoneal administration, 20 days
[6] = per os and intraperitoneal administration
[7] = intraperitoneal administration, 24 hrs.
[8] = intraperitoneal administration, 10 days
[9] = ip, intraperitoneal administration

Row | SMILES | LD10 (mouse; [7]) [mg/kg] | LD90 (mouse; [7]) [mg/kg] | LD10 (mouse; [8]) [mg/kg] | LD90 (mouse; [8]) [mg/kg] | LD50 at 24 h [2, 9] [mg/kg] | LD50 at 240 h [2, 9] [mg/kg] | further results
1 | CCNC(=O)/C=C(C)/C=C/C=C(C)/C=C/C1=C(C)CCCC1(C)C [Vitamin A acid ethyl amide, vitamin A acid monoethyl amide] | – | – | – | – | – | – | LD50 at 24 h ([1]; 24 hrs.): > 4000 mg/kg; LD50 at 240 h ([1]; 10 days): > 4000 mg/kg; LD10 (rat; 24 hrs.): > 4000 mg/kg; LD90 (rat; 24 hrs.): > 4000 mg/kg; LD10 (rat; 10 days): > 4000 mg/kg; LD90 (rat; 10 days): > 4000 mg/kg; LD10 (mouse; [3]): > 4000 mg/kg; LD90 (mouse; [3]): > 4000 mg/kg; LD10 (mouse; [4]): > 4000 mg/kg; LD90 (mouse; [4]): > 4000 mg/kg; LD10 (mouse; [5]): > 4000 mg/kg; LD90 (mouse; [5]): > 4000 mg/kg; LD50 at 24 h [2, 6]: > 4000 mg/kg; LD50 at 240 h [2, 6]: > 4000 mg/kg; LD50 at 480 h [2, 5]: > 4000 mg/kg
2 | CNC(=O)/C=C(C)/C=C/C=C(C)/C=C/C1=C(C)CCCC1(C)C [vitamin A acid methyl amide] | > 4000 | > 4000 | > 4000 | > 4000 | > 4000 | > 4000 | –
3 | CC1=C(/C=C/C(C)=C/C=C/C(C)=C/C(=O)NC(C)C)C(C)(C)CCC1 [vitamin A acid isopropyl amide] | > 4000 | > 4000 | > 4000 | > 4000 | > 4000 | > 4000 | –
4 | CCCCNC(=O)/C=C(C)/C=C/C=C(C)/C=C/C1=C(C)CCCC1(C)C [vitamin A acid n-butyl amide] | > 4000 | > 4000 | > 4000 | > 4000 | > 4000 | > 4000 | –
5 | CC1=C(/C=C/C(C)=C/C=C/C(C)=C/C(=O)Nc2ccccc2)C(C)(C)CCC1 [vitamin A acid phenyl amide] | > 4000 | > 4000 | > 4000 | > 4000 | > 4000 | > 4000 | –
6 | CCN(CC)C(=O)/C=C(C)/C=C/C=C(C)/C=C/C1=C(C)CCCC1(C)C [Vitamin A acid diethyl amide, vitamin A acid diethyl amide] | > 4000 | > 4000 | > 4000 | > 4000 | > 4000 | > 4000 | –
7 | CC1=C(/C=C/C(C)=C/C=C/C(C)=C/C(=O)NCCO)C(C)(C)CCC1 [Vitamin A acid ethanol amide, vitamin A acid ethanol amide] | > 4000 | > 4000 | 710 | 1400 | > 4000 | 1000 | –
